The nature of one series: in vivo. The settings on record: male, Sprague-Dawley, rat, iv, 1 mg/kg. Details: species or system Male Sprague-Dawley rats. Here is the method: GW1843 (M.W. 500.51 g/mol) was obtained from Glaxo Wellcome, Inc. and suspended as an aqueous. Briefly, 616.74 milligrams of GW1843 was suspended in 1.4 mL 2 N NaOH. The solution was mixed until dissolved. To the dissolved solution 30 mL saline was added. The pH was adjusted to 7.15 with 2 N HCl. Finally, the solution was brought to 46.545 mL with saline. The nominal concentration was 13.25 mg/mL. UV absorption in 0.1 N sodium hydroxide at 266 nm, based on an extinction coefficient of 4.34×104 cm^−1 M^−1, determined the concentration. The concentration by UV spectroscopy was 13.97 mg/mL (5.4% difference from expected). The value determined by spectroscopy was utilized for standards in the HPLC assay. NX1843 lot SMC-991-96 (see Table 1A) was used for making quality control solutions.
Male Sprague-Dawley rats weighing 343.91 to 420.19 grams were used for the study. The in-life phase of the study was conducted in Boulder Colo. in accordance with the guidelines for animal welfare and care (NRC Publication Guide for the Care and Use of Laboratory Animals, 1996). IACUC protocol number N98010. Animals were allowed free access to food and water before and during treatment.
Individual animals treated with NX1843 were weighed and dosed at 1 mg/kg body weight by intravenous bolus administration into the tail vein while under isoflurane anesthesia.
Serial EDTA-blood samples (0.5 mL) were obtained at 5, 15, 30 and 45 minutes, and 1, 1.5 and 2 hr post-dosing for the GW1843 group while animals were under isoflurane anesthesia. For the NX1843 group, serial EDTA-blood samples (0.5 mL) were obtained at 10, 30 and 90 minutes and 4, 8, 24, 32, 48, 72 and 96 hours post-dosing. The EDTA-blood samples were immediately processed for plasma and plasma samples were stored at −20° C. until analysis.
An isocratic reverse phase high performance liquid chromatographic (HPLC) procedure was used for rapid determination of the total GW1843 concentration in rat EDTA-plasma. Following methanol precipitation of plasma protein (2 parts methanol to 1 part plasma), the protein was removed by centrifugation at 14,000×g for 10 minutes. A ZORBAX Eclipse™ XBD-C18 column (3 mm×15 cm) configured with a guard column was used to separate the soluble GW1843 (injection volume 20 μL). The HPLC buffer consisted of 80% 100-mM ammonium acetate pH 5.3, and 20% acetonitrile and the flow rate was 0.4 mL/min. The total run time was seven minutes and GW1843 was detected and quantified by ultraviolet absorbance at 264 nm. The standard curve consisted of free GW1843 spiked rat EDTA-plasma while the quality control samples consisted of NX1843 spiked rat EDTA-plasma. The range of the standard curve was 0.1 to 30.0 μg/mL.
The pharmacokinetic parameters for total GW1843 after i.v administration of GW1843 or liposome encapsulated GW1843 were assessed by a non-compartmental method using WinNonlin (version 1.5). The log/linear trapazoidal rule was used. For non-compartmental analysis, all three time points were utilized for the estimation the elimination phase for free GW1843 while the last 5 time points were utilized to estimate the elimination half-life of NX1843. Cmax values were estimated by extrapolation to zero time. Pharmacokinetic parameters were determined for each animal in the study. From values obtained in each group the mean and SD of each parameter was determined. The parameters estimated included:
The observed clearance (CL) of GW1843 following administration was calculated as: […]
Comparison of treatment groups was performed by unpaired t-tests of data obtained in the same experiment. A p-value of <0.05 was considered significant. Tests were performed using GraphPad Instat version 1.0 (GraphPad Software).

Series [1] has as its system human colon tumor xenograft model (HCT-8, thymidine kinase (TK)-/-). The series can be described thus: HCT-8 xenograft, NX1843 dose schedule study and combinations with 5-FU, NX211 and GW1843 (Table 27). In kind it is in vivo, nude mice. As to the method:
Female Nu/Nu mice (18-24 g, 10-14 weeks old) were obtained from Harlan Sprague Dawley, and housed in microisolator filtration racks and maintained with filtered acidified water and sterile lab chow ad libitum. […] Animals were allowed to acclimate to their new environment for 1 week prior to tumor cell implantation. Tumors were established by injecting harvested tumor cells in a single subcutaneous site on the flank of the mice in the axillary region. The tumors were grown until approximately 200+/−50 mm^3 in size. The animals were then sorted according to body weight, grouped four animals/cage, and tattooed on the tail for permanent identification. Groups consisting of 8 tumor-bearing mice each were administered weekly doses of experimental agents by IV bolus injection through the tail vein. Tumor volumes were determined with vernier caliper measurements taken at right angles using the formula, (L×W^2/2) and body weights, were collected twice weekly. Data was plotted as % change in body weight vs. time in days, and % tumor volume increase vs. days.
T=(mean) time in days for treated group to reach cutoff size (2 grams)
C=(mean) time in days for control group to reach cutoff size (2 grams)
WC is the mean tumor weight of control group at time x
Wt is mean tumor weight of treated group at time x
% Regression=100 (Wo−Wi)/Wo; where Wo is the mean tumor weight for treated group at the initiation of treatment and Wi=the mean tumor weight for that group at time some time x after treatment.
In addition to these dose groups the free drug was dosed at 100 mg/kg on days 1-5, and repeated for a second week.

The mark [2] stands for this setting: Concentration of GW1843 in Plasma.

Molecules are shown by their SMILES.

As to `Cc1nc2ccc3ccc(CNc4ccc5c(c4)CN(C(CCC(=O)O)C(=O)O)C5=O)cc3c2c(=O)[nH]1` (centres unmarked) [GW1843], the “volume of distribution of free drug relative to the liposome formulation” value in the series “in vivo” is listed as about 14.6 fold. Also, the area under the curve AUC(0-inf) (as a rule, the area under the concentration-time curve extrapolated to infinity) in the series “in vivo” (AUC(0-inf)) is 270 ± 28 ng·h/mL. Besides, the AUC(0-t) (commonly the area under the concentration-time curve up to a stated or last time point) in “in vivo” (AUC(0-last)) came out at 250 ng·h/mL. Besides, in the series “in vivo” (CL), the clearance (usually a measure of how efficiently the substance is removed, as volume per time) was 61 mL/min/kg. Also, in “in vivo” (Cmax), the Cmax – broadly, the highest concentration seen after dosing – was 1620 to 1990 ng/mL. In the series “in vivo” (setting [2]), this molecule showed a concentration at 0.083 hr of 991 ng/mL, a concentration at 0.25 hr of 214 ng/mL and a concentration at 0.5 hr of 117 ng/mL. The MRT inf – broadly, the average time that molecules of a dose stay in the body – in the series “in vivo” (MRT(0-inf)) came out at 10.8 min. Also, in the series “in vivo” (T½ (terminal half-life)), the half-life (usually how long it takes for the measured level to halve) was 8.52 ± 0.42 min. Besides, the Vd (commonly the apparent volume that relates the amount in the body to the concentration in plasma or blood) in the series “in vivo” (Vss) came to 0.654 L/kg. Also, the clearance in “in vivo” (plasma clearance) is 62.3 mL/min. Moreover, in series [1] (100 mg/kg, QD1-5 × 2), the “% TGI” value is 80%, the Cures stood at 0 and the LCK is reported as 2.4. In addition, the “% Regression day 22” value in series [1] (100 mg/kg, QD1-5 × 2, day 22) worked out at 0%. For the same molecule, the “log cell kill (LCK)” value in series [1] (iv, NX1843 25 mg/kg d1,8, 15 mg/kg QD(1,3,5)×2 or 7.5 mg/kg QD(1-5)×2, GW1843 100 mg/kg d1-5 ×2, 5FU 100 mg/kg d1,8, NX211 6 mg/kg d1,8, combinations at same doses) was found to be 2.4.

Values taken from patent publication US6689381B2, “Liposomal benzoquinazoline thymidylate synthase inhibitor formulations” (OSI Pharmaceuticals, Inc., priority 2000, dated 2004).
